Source: PubChem BioAssay AID2060493 (Molecular Pharmacology Branch, DTP, NCI, 2025)

Test system: 616215-338-R-J1-PDC tumor spheroids, viability
Assay: Anticancer human tumor 616215-338-R-J1-PDC patient-derived colon adenocarcinoma cell line growth inhibition [GQUAD]
Conditions: spheroids with HUVEC and MSC; for IC50: curve of first compound; for viability, T/C: stronger effect = lower value
In short: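 Viability of tumor cells grown as complex spheroids with endothelial and stromal cells, exposed to drug combinations. Top concentration at or near clinical Cmax (else 10 microM), diluted in half-log increments.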

[1] = second compound 0.0316 µM, first compound 0.0316 µM
[2] = second compound 0.0316 µM, first compound 0.1 µM
[3] = second compound 0.0316 µM, first compound 0.316 µM
[4] = second compound 0.0316 µM, first compound 1 µM
[5] = second compound 0.0316 µM, first compound 3.16 µM
[6] = second compound 0.0316 µM, first compound 10 µM
[7] = second compound 0.1 µM, first compound 0.0316 µM
[8] = second compound 0.1 µM, first compound 0.1 µM
[9] = second compound 0.1 µM, first compound 0.316 µM
[10] = second compound 0.1 µM, first compound 1 µM
[11] = second compound 0.1 µM, first compound 3.16 µM
[12] = second compound 0.1 µM, first compound 10 µM
[13] = second compound 0.316 µM, first compound 0.0316 µM
[14] = second compound 0.316 µM, first compound 0.1 µM
[15] = second compound 0.316 µM, first compound 0.316 µM
[16] = second compound 0.316 µM, first compound 1 µM
[17] = second compound 0.316 µM, first compound 3.16 µM
[18] = second compound 0.316 µM, first compound 10 µM
[19] = second compound 1 µM, first compound 0.0316 µM
[20] = second compound 1 µM, first compound 0.1 µM
[21] = second compound 1 µM, first compound 0.316 µM
[22] = second compound 1 µM, first compound 1 µM
[23] = second compound 1 µM, first compound 3.16 µM
[24] = second compound 1 µM, first compound 10 µM
[25] = second compound 3.16 µM, first compound 0.0316 µM
[26] = second compound 3.16 µM, first compound 0.1 µM
[27] = second compound 3.16 µM, first compound 0.316 µM
[28] = second compound 3.16 µM, first compound 1 µM
[29] = second compound 3.16 µM, first compound 3.16 µM
[30] = second compound 3.16 µM, first compound 10 µM
[31] = second compound 10 µM, first compound 0.0316 µM
[32] = second compound 10 µM, first compound 0.1 µM
[33] = second compound 10 µM, first compound 0.316 µM
[34] = second compound 10 µM, first compound 1 µM
[35] = second compound 10 µM, first compound 3.16 µM
[36] = second compound 10 µM, first compound 10 µM
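Note: spheroids exposed to agents for 7 days before readout.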
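Throughout, for viability, T/C: percent viability relative to DMSO vehicle control wells taken as 100%.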

Molecule C#Cc1c(F)ccc2cc(O)cc(-c3ncc4c(N5CC6CCC(C5)N6)nc(OCC56CCCN5CC(F)C6)nc4c3F)c12 (stereo not drawn) + Cc1[nH]c2ccc(F)cc2c1-c1nc2c3cccnc3c3ncccc3c2[nH]1 has an IC50 (second compound 0.0316 µM) greater than 10000 nM, an IC50 (second compound 0.1 µM) greater than 10000 nM and an IC50 (second compound 0.316 µM) greater than 10000 nM. The IC50 (second compound 1 µM) was greater than 10000 nM, the IC50 (second compound 3.16 µM) was 8110 nM and the IC50 (second compound 10 µM) was 6030 nM. It also gave a viability, T/C [1] of 104%, a viability, T/C [2] of 109% and a viability, T/C [3] of 103%. The viability, T/C [4] was 111%, the viability, T/C [5] was 97.4% and the viability, T/C [6] was 73.3%. The viability, T/C [7] was 107%, the viability, T/C [8] was 111% and the viability, T/C [9] was 126%. The viability, T/C [10] was 113%, the viability, T/C [11] was 96% and the viability, T/C [12] was 78.4%. For the same molecule, the viability, T/C [13] was 113%, the viability, T/C [14] was 96.9% and the viability, T/C [15] was 124%. For the same molecule, the viability, T/C [16] was 116%, the viability, T/C [17] was 106% and the viability, T/C [18] was 56.9%. The viability, T/C [19] was 105%, the viability, T/C [20] was 99.9% and the viability, T/C [21] was 97.9%. For the same molecule, the viability, T/C [22] was 108%, the viability, T/C [23] was 83.8% and the viability, T/C [24] was 64.4%. For the same molecule, the viability, T/C [25] was 102%, the viability, T/C [26] was 106% and the viability, T/C [27] was 116%. It also gave a viability, T/C [28] of 94.1%, a viability, T/C [29] of 82.6% and a viability, T/C [30] of 42.9%. It also gave a viability, T/C [31] of 97.2%, a viability, T/C [32] of 101% and a viability, T/C [33] of 110%. The viability, T/C [34] was 82.1%, the viability, T/C [35] was 60.8% and the viability, T/C [36] was 42.4%.

CC(C)(O)C1CCC(Nc2ccc3ncc(-c4cccc(C(F)(F)F)c4)n3n2)CC1 (stereo not drawn) + Cc1[nH]c2ccc(F)cc2c1-c1nc2c3cccnc3c3ncccc3c2[nH]1 was tested, and the IC50 (second compound 0.0316 µM) was 610 nM, the IC50 (second compound 0.1 µM) was 596 nM and the IC50 (second compound 0.316 µM) was 591 nM. For the same molecule, the IC50 (second compound 1 µM) was 644 nM, the IC50 (second compound 3.16 µM) was 584 nM and the IC50 (second compound 10 µM) was 566 nM. The viability, T/C [1] was 99.1%, the viability, T/C [2] was 103% and the viability, T/C [3] was 103%. The viability, T/C [4] was 11.2%, the viability, T/C [5] was 0.5% and the viability, T/C [6] was 1.09%. It also gave a viability, T/C [7] of 93.7%, a viability, T/C [8] of 109% and a viability, T/C [9] of 94.3%. It also gave a viability, T/C [10] of 13.8%, a viability, T/C [11] of 0.24% and a viability, T/C [12] of 2.5%. For the same molecule, the viability, T/C [13] was 92%, the viability, T/C [14] was 97% and the viability, T/C [15] was 97.6%. The viability, T/C [16] was 11.7%, the viability, T/C [17] was 2.23% and the viability, T/C [18] was 1.14%. For the same molecule, the viability, T/C [19] was 97%, the viability, T/C [20] was 89.9% and the viability, T/C [21] was 91.6%. For the same molecule, the viability, T/C [22] was 24.3%, the viability, T/C [23] was 0.55% and the viability, T/C [24] was 1.33%. For the same molecule, the viability, T/C [25] was 98.8%, the viability, T/C [26] was 103% and the viability, T/C [27] was 95.2%. The viability, T/C [28] was 10.4%, the viability, T/C [29] was 0.45% and the viability, T/C [30] was 0.48%. It also gave a viability, T/C [31] of 90.1%, a viability, T/C [32] of 94.4% and a viability, T/C [33] of 93.2%. For the same molecule, the viability, T/C [34] was 8.43%, the viability, T/C [35] was 0.77% and the viability, T/C [36] was 0.56%.

In the case of CC1COCCN1c1cc(C2(S(C)(=N)=O)CC2)nc(-c2ccnc3[nH]ccc23)n1 (stereo not drawn) + Cc1cnc(CNC(=O)c2c(=O)c3ccc(N4CCCN(C)CC4)nc3n3c2sc2ccccc23)cn1, the IC50 (second compound 0.0316 µM) is reported as 2380 nM, the IC50 (second compound 0.1 µM) is reported as 1070 nM and the IC50 (second compound 0.316 µM) is reported as 45.3 nM. The IC50 (second compound 1 µM) was less than 31.6 nM, the IC50 (second compound 3.16 µM) was less than 31.6 nM and the IC50 (second compound 10 µM) was less than 31.6 nM. The viability, T/C [1] was 97.6%, the viability, T/C [2] was 97.4% and the viability, T/C [3] was 94.5%. For the same molecule, the viability, T/C [4] was 83.7%, the viability, T/C [5] was 38.8% and the viability, T/C [6] was 31.4%. The viability, T/C [7] was 72.5%, the viability, T/C [8] was 73.4% and the viability, T/C [9] was 70%. For the same molecule, the viability, T/C [10] was 51.2%, the viability, T/C [11] was 33.6% and the viability, T/C [12] was 32.6%. For the same molecule, the viability, T/C [13] was 53.5%, the viability, T/C [14] was 43.2% and the viability, T/C [15] was 44.1%. For the same molecule, the viability, T/C [16] was 42.1%, the viability, T/C [17] was 33.7% and the viability, T/C [18] was 28.2%. For the same molecule, the viability, T/C [19] was 38.3%, the viability, T/C [20] was 40.9% and the viability, T/C [21] was 32%. For the same molecule, the viability, T/C [22] was 26.7%, the viability, T/C [23] was 27.7% and the viability, T/C [24] was 21.5%. For the same molecule, the viability, T/C [25] was 21.9%, the viability, T/C [26] was 30.2% and the viability, T/C [27] was 31.6%. The viability, T/C [28] was 30.2%, the viability, T/C [29] was 40.4% and the viability, T/C [30] was 30%. For the same molecule, the viability, T/C [31] was 25.1%, the viability, T/C [32] was 27.1% and the viability, T/C [33] was 29.9%. The viability, T/C [34] was 22.4%, the viability, T/C [35] was 19.6% and the viability, T/C [36] was 17.5%.

Molecule COc1cc(C2c3cc4c(cc3C(OC3OC5COC(C)OC5C(O)C3O)C3COC(=O)C23)OCO4)cc(OC)c1O (stereo not drawn) + Cc1cnc(CNC(=O)c2c(=O)c3ccc(N4CCCN(C)CC4)nc3n3c2sc2ccccc23)cn1 has an IC50 (second compound 0.0316 µM) of 481 nM, an IC50 (second compound 0.1 µM) of 456 nM and an IC50 (second compound 0.316 µM) of less than 31.6 nM. It also gave an IC50 (second compound 1 µM) of less than 31.6 nM, an IC50 (second compound 3.16 µM) of less than 31.6 nM and an IC50 (second compound 10 µM) of less than 31.6 nM. The viability, T/C [1] was 104%, the viability, T/C [2] was 98.3% and the viability, T/C [3] was 54.3%. It also gave a viability, T/C [4] of 44.2%, a viability, T/C [5] of 57.3% and a viability, T/C [6] of 23.9%. The viability, T/C [7] was 65.7%, the viability, T/C [8] was 61% and the viability, T/C [9] was 55.8%. It also gave a viability, T/C [10] of 38.8%, a viability, T/C [11] of 32.2% and a viability, T/C [12] of 30.6%. For the same molecule, the viability, T/C [13] was 39.5%, the viability, T/C [14] was 46.2% and the viability, T/C [15] was 29.3%. For the same molecule, the viability, T/C [16] was 36.3%, the viability, T/C [17] was 30.6% and the viability, T/C [18] was 17.7%. The viability, T/C [19] was 32.3%, the viability, T/C [20] was 32.8% and the viability, T/C [21] was 33.8%. The viability, T/C [22] was 34.3%, the viability, T/C [23] was 23.3% and the viability, T/C [24] was 18.4%. The viability, T/C [25] was 34.5%, the viability, T/C [26] was 23.7% and the viability, T/C [27] was 28.3%. It also gave a viability, T/C [28] of 27%, a viability, T/C [29] of 28.2% and a viability, T/C [30] of 24.3%. The viability, T/C [31] was 28.2%, the viability, T/C [32] was 29.7% and the viability, T/C [33] was 26.6%. For the same molecule, the viability, T/C [34] was 36.3%, the viability, T/C [35] was 22.3% and the viability, T/C [36] was 23.8%.
